Data as given in US9676820B2, “Method for inhibiting proliferation of high LIX1L-expressing tumor cell, and tumor cell proliferation-inhibiting peptide” (National University Corporation Hamamatsu University School …, priority 2013, dated 2017).
“Also recorded” adds a separate entry of the source.

Assays:
Format in all cases: cell-based
K562 strain = assay: MTT assay, K562 strain
Protocol: (§1) Specifically, first, cells plated in a 96-well microplate such that the density thereof became 5×10^3 cells/well were cultured for one night in a culture solution having the same composition as those in the reference examples. Thereafter, the culture solution was exchanged with 100 μL of a culture solution of which the concentration of peptides is 0 μM to 100 μM for culturing for 72 hours. After the culturing, an MTT-containing PBS solution was added to the culture solution, and the mixture was incubated for 4 hours. Then, formazan which was generated by putting 100 μL of isopropanol (containing 34 (v/v) % of hydrochloric acid) into each of the wells was dissolved. The absorbance of each of the wells of the microplate at 570 nm was measured using a microplate reader. As controls, culturing was performed in the same manner except that no peptide was added to the strains, an MTT assay was performed thereon, and the absorbance at 570 nm was measured (untreated).
(§2) Specifically, the cells were cultured for 72 hours similarly to Example 2 except that a peptide to be added to a cell strain was set to peptide 1, 3, or 4, or a control peptide, an MTT assay was performed thereon, and the absorbance at 570 nm was measured.
(§3) In the method for measuring the viable cell counts, cells were cultured for 3 days similarly to Example 1 except that a 25 μM (10 μM for an HL-60 strain, a K562 strain, and a U937 strain) culture solution containing a control peptide or a peptide 1 was used, and the viable cell counts were measured. As a comparison, culturing was performed similarly to the above using a culture solution containing no peptide, and the viable cell counts were measured (untreated).
(§4) In addition, in the method for performing an MTT assay, cells were cultured for 72 hours similarly to Example 2 except that a peptide to be added to a strain was set to a control peptide or a peptide 1 at 25 μM (10 μM for an HL-60 strain, a K562 strain, and a U937 strain), an MTT assay was performed thereon, and the absorbance at 570 nm was measured. As a comparison, culturing was performed similarly to the above using a culture solution containing no peptide, and the MTT assay was performed thereon (untreated).
(§5) Specifically, the cells were cultured for 72 hours similarly to Example 2 except that a peptide to be added to a cell was set to a peptide 1, 2, 5, or 6, MTT assays were performed thereon, and the absorbance at 570 nm was measured. As a comparison, culturing was performed similarly to the above using a culture solution containing no peptide, and the MTT assay was performed thereon (untreated).
as §5, with “that peptides” for “that a peptide”, “to” for “to a”, “cell strains were” for “cell was”, “to peptides 7 to 14,” for “to a peptide 1, 2, 5, or 6,”
Specifically, the cells were cultured for 72 hours similarly to Example 2 except that a peptide to be added to a cell strain was set to a peptide 15 or 16, an MTT assay was performed thereon, and the absorbance at 570 nm was measured. As a comparison, culturing was performed similarly to the above using a culture solution containing no peptide, and the MTT assay was performed thereon (untreated).

HL-60 strain = assay: MTT assay, HL-60 strain
Protocol: as §1, §3, §4

293 FLG/LIX1L [1] = assay: Colony formation assay (agarose), 293 FLG/LIX1L cells (Example 9); details: 293 FLG/LIX1L/PY136 cells, 14 days
Protocol: In the colony formation assay, the 293 FLG cells, the 293 FLG/LIX1L cells, and the 293 FLG/LIX1L/PY136 cells were respectively mixed in 10% FCS-containing DMEM culture media, to which 0.4% agarose was added, and the mixtures were gently placed on 0.6% agarose- and 10% FCS-containing DMEM culture media for culturing for 14 days. Thereafter, the influence of LIX1L and PY136 on cell proliferation was evaluated by counting the number of colonies in each well using an optical microscope (manufactured by Zeiss).

OCUM-1 strain = assay: MTT assay, OCUM-1 strain; details: MTT assay, 72 hours
Protocol: as §1

MKN45 strain = assay: MTT assay, MKN45 strain
Protocol: as §1, with “Thereafter, the culture solution was exchanged with 100 μL of a culture solution of which the concentration of peptides is 0 μM to 100 μM for culturing for 72 hours.” left out
as §3, §4, §5
Specifically, the cells were cultured for 72 hours similarly to Example 2 except that peptides to be added to cell strains were set to peptides 7 to 14, MTT assays were performed thereon, and the absorbance at 570 nm was measured. […]
Specifically, the cells were cultured for 72 hours similarly to Example 2 except that a peptide to be added to a cell strain was set to a peptide 15 or 16, an MTT assay was performed thereon, and the absorbance at 570 nm was measured. […]

293 FLG/LIX1L [2] = assay: Number of colonies formed, 293 FLG/LIX1L (Example 6); details: peptide 25 μM, cultured for 14 days
Protocol: Specifically, 293 FLG was plated in one plate (6 wells/plate) and 293 FLG/LIX1L was plated in two plates such that the density of the cells became 1×10^4 cells/3.5 cm well. Among these, one of the plates in which 293 FLG was plated and the plate in which 293 FLG/LIX1L was plated were cultured for 14 days in a 10% vol. % FCS-containing DMEM culture medium. The remaining one of the plates in which 293 FLG/LIX1L was plated was cultured for 14 days in a 10% vol. % FCS-containing DMEM culture medium in which the peptide 1 was made to be included such that the concentration thereof became 25 μM. Each of the wells after the culturing was observed under a microscope, and the number of colonies formed was measured.

RPMI8226 strain = assay: MTT assay, RPMI8226 strain; details: peptide 0 μM to 100 μM, 72 hours
Protocol: as §1, §2

[3] = 72 hours, peptide concentrations up to 250 μM
[4] = peptide 10 μM, 3 days / 72 hours

## CC(C)[C@H](NC(=O)[C@H](Cc1ccc(O)cc1)NC(=O)[C@H](CS)NC(=O)[C@@H](NC(=O)[C@H](Cc1ccc(O)cc1)NC(=O)[C@@H]1CCCN1C(=O)[C@@H]1CCCN1C(=O)[C@H](CO)NC(=O)[C@H](CC(N)=O)NC(=O)[C@H](CO)NC(=O)[C@@H]1CCCN1C(=O)CCCCCNC(=O)[C@H](CCCNC(=N)N)NC(=O)[C@H](CCCNC(=N)N)NC(=O)[C@H](CCCNC(=N)N)NC(=O)[C@H](CCC(N)=O)NC(=O)[C@H](CCCNC(=N)N)NC(=O)[C@H](CCCNC(=N)N)NC(=O)[C@H](CCCCN)NC(=O)[C@H](CCCCN)NC(=O)[C@H](CCCNC(=N)N)NC(=O)CNC(=O)[C@@H](N)Cc1ccc(O)cc1)C(C)C)C(N)=O [peptide 1, YGRKKRRQRRR-X-PSNSPPYVCYV-NH2]
K562 strain; [3]
  cell proliferation (MTT assay, absorbance at 570 nm): inhibited
K562 strain; MTT assay, 72 hours
  concentration at which a dominant effect of inhibiting the cell proliferation was recognized: greater than or equal to 6.25 μM
K562 strain; peptide 0 μM to 100 μM, 72 hours
  absorbance at 570 nm (MTT assay), influence on cell proliferation: inhibited
K562 strain; [4]
  cell proliferation (viable cell counts and MTT assay): inhibited
HL-60 strain; MTT assay, 72 hours
  concentration at which a dominant effect of inhibiting the cell proliferation was recognized: greater than or equal to 6.25 μM
HL-60 strain; [4]
  cell proliferation (viable cell counts and MTT assay): inhibited
293 FLG/LIX1L [1]
  formation of colonies (colony formation assay): significantly inhibited
OCUM-1 strain
  concentration at which a dominant effect of inhibiting the cell proliferation was recognized: greater than or equal to 6.25 μM
MKN45 strain; [3]
  cell proliferation (MTT assay, absorbance at 570 nm): inhibited
MKN45 strain; peptide 25 μM, 3 days / 72 hours
  cell proliferation (viable cell counts and MTT assay): inhibited
293 FLG/LIX1L [2]
  number of colonies formed: inhibited
RPMI8226 strain
  absorbance at 570 nm (MTT assay), influence on cell proliferation: no effect of inhibiting the cell proliferation; also recorded: not inhibited
